This assay relates to HMG-CoA reductase. As to the kind of experiment: HMG-CoA Reductase Inhibition Assay (in vitro, [14C]HMG-CoA to mevalonolactone). It counts as biochemical. Conditions: IC50 compared with that of compactin determined simultaneously; compactin assigned 100 (footnote b60 prints 10); tested as sodium salt of dihydroxy acid form; solubilized rat liver microsomal enzyme. Here is the method:
The intrinsic HMG-CoA reductase inhibition activity of the claimed compounds is measured in the in vitro protocol published in J. Med. Chem., 28, p. 347-358 (1985) and described below:
Isolation of HMG-CoA Reductase
Male Holtzman Sprague-Dawley rats (225-250 g) were kept on reversed lighting and fed Purina rat chow containing 3% cholestyramine for 7 days preceding their sacrifice by CO2 asphyxiation. Livers were removed 6 hours into the dark cycle and used immediately to prepare microsomes. HMG-CoA reductase was solubilized from the freshly prepared microsome by the method of Heller and Shrewsbury [J. Biol. Chem., 1976, 251, 3815] and purified through the second ammonium sulfate precipitation step as described by Kleinsek et al. [Proc. Natl. Acad. Sci. USA, 1977, 74, 1431]. The enzyme preparation was tested for HMG-CoA reductase potency and diluted with 100 mM phosphate buffer (pH 7.2) so that 100 μl of the enzyme solution, when added to the assay control, gave a value of 50,000-60,000 dpm. The enzyme preparation was stored at -80° C.
HMG-CoA Reductase Inhibition Assay
The assay is essentially the procedure of Shefer et al. [J. Lipid Res., 1972, 13, 402]. The complete assay medium contained the following in a total volume of 0.8 ml: phosphate buffer, pH 7.2, 100 mM; MgCl2, 3 mM; NADP, 3 mM; glucose 6-phosphate, 10 mM; glucose-6-phosphate dehydrogenase, 3 enzyme units; reduced glutathione, 50 mM; HMG-CoA (glutaryl-3-^14 C, New England Nuclear), 0.2 mM (0.1 μCi); and partially purified enzyme stock solution, 100 μL.
Test compounds or compactin (after first being converted to the sodium salt of their dihydroxy acid form in situ by addition of 1N NaOH (1 equivalent) were added to the assay system in 10-μL volumes at multiconcentration levels. After a 40-minute incubation at 37° C. with shaking and exposure to air, the reaction was stopped by the addition of 0.4 mL of 8N HCl. After an additional 30-minute incubation period at 37° C. to ensure the complete lactonization of mevalonic acid to mevalonolactone, 0.2 ml of the mixture was added to an 0.5×5.0 cm column containing 100-200 mesh Bio-Rex 5, chloride form (Bio-Rad), wetted with distilled water, as described by Alberts et al. [J. Proc. Natl. Acad. Sci. U.S.A., 1980, 77, 3957]. The unreacted [^14 C]HMG-CoA was absorbed on the resin and the [^14 C]mevalonolactone was eluted with distilled water (2×1 ml) directly into 7-ml scintillation vials. Five milliliters of Aquasol-2 (New England Nuclear) was added to each vial, and radioactivity was measured in a Packard Tri Carb Prias scintillation counter. IC50 values were determined by plotting percentage inhibition against test compound concentration and fitting a straight line to the resulting data by using the least-squares method. For estimation of relative inhibitory potencies, compactin was assigned a value of 100 and the IC50 value of the test compound was compared with that of compactin determined simultaneously.
On the technique in general: Microsomes from liver hold many membrane-bound enzymes, among them those of drug oxidation.

Structures are written as SMILES.

As to `CCN(CC)C(=O)C(C)(C)C(=O)OC1CC(C)C=C2C=CC(C)C(CCC(O)CC(O)CC(=O)O)C21` (centres unmarked), the “Relative Potency” value is recorded as 22.

Regarding `CC1C=C2C=CC(C)C(CCC(O)CC(O)CC(=O)O)C2C(OC(=O)C(C)(C)C(=O)N2CCOCC2)C1` (centres unmarked), the “Relative Potency” value is given as 20.

`CC1C=C2C=CC(C)C(CCC(O)CC(O)CC(=O)O)C2C(OC(=O)C(C)(C)C(=O)N(C)C)C1` (centres unmarked): the “Relative Potency” value was 34.

As to `CC1C=C2C=CC(C)C(CCC(O)CC(O)CC(=O)O)C2C(OC(=O)C(C)(C)CC(=O)N(C)C)C1` (centres unmarked), the “Relative Potency” value turned out to be 16.

In the case of `CNC(=O)C(C)(C)C(=O)OC1CC(C)C=C2C=CC(C)C(CCC(O)CC(O)CC(=O)O)C21` (centres unmarked), the “Relative Potency” value turned out to be 13.

The values above are taken from patent US4661483A, “Antihypercholesterolemic lactone compounds, compositions and use” (Merck & Co., Inc., priority 1986, dated 1987).
